{"source": "patent US9713613B2", "about": "“Methods and compositions for the treatment of cancer and related hyperproliferative disorders” (priority 2007, dated 2017)", "test_system": "ob/ob mice", "experiment": "ob/ob mice, four weeks daily ip treatment", "assay_type": "in vivo", "description": "The study employed 4-5 week old male ob/ob mice of average weight of about 23 g/mouse. Fatostatin A (30 mg/kg/day) was delivered intraperitoneally daily, and body weight and food intake were measured. […] At the end of first week of treatment ob control mice injected with DMSO gained on average of 4.82 g/mouse (from 23.58±0.62 to 28.40±1.45), whereas the fatostatin treated group gained about 3.37 g/mouse (23.08±1.53 to 26.45±1.2 g/mouse), (p=0.03). After 28 days of treatment the fatostatin A treated group weighed about 12% less than the controls weeks (32.1±1.4 compared to 36.2±2.2 g/mouse […]) (P=0.02). The accumulative food intake was similar in both groups FIG. 8C).\nFour- to 5-week old homozygous male obese (ob/ob) mice (C57BL/6J, The Jackson Laboratory, Bar Harbor, Me.) were housed under controlled conditions (12-hr light/dark cycle; 25° C.). The animals were housed 5 per cage and had ad libitum access to standard laboratory chow (Purina Mills, Richmond Ind.) and water for one week after their arrival. On first day of the experiment and every day thereafter the weight of the mice and the amount of the food consumed were measured. The weight of mice and food remaining were measured daily between 3-5 p.m. before the ip injection of fatostatin A (30 mg/kg; 150 μL). The administration of Fatostatin A or 10% DMSO in PBS to control groups (n=5) continued daily for four weeks till the end of the study.\nAfter 28 days of daily injection of fatostatin A mice were fasted overnight and blood was withdrawn and Whole blood glucose and 3-hydroxybutyrate were measured with a Glucometer Precision Xtra (Abbott). For determination of serum constituents. Glucose, triglyceride and cholesterol measurements were done by the Comparative Pathology Laboratory (Baylor College of Medicine). Serum non-esterified fatty acids (NEFA) were measured by using NEFA C kit (Wako Chemicals, Richmond, Va.).\nMice were sacrificed and weights of livers, and Epididymal fat pads were determined. Frozen sections of Liver slices from individual animals were stained with Oil Red O to visualize the fat droplets (TG) in liver slices as described earlier (Abu-Elheiga et al., 2001). The remaining liver tissues were frozen in liquid nitrogen and kept at −80° C. for further analysis.\nLiver triglyceride and cholesterol contents were carried out as described in the reference (Chandler, et al., 2003) using Cholesterol E Kit (Wako) and Infinity Triglyceride Kit (Thermo Electron, Melbourne, Australia), adapted for colorimetric analysis in 96-well plate format.\nA portion of the frozen liver was ground to powder in liquid nitrogen. The powdered tissues were suspended in 10 ml of PBS containing 0.1 mM PMSF, 5 mM benzamidine, and 5 mg/ml protease inhibitor cocktail (Roche), and homogenized using Polytron (3×30 Sec, at high speed) and sonicated briefly to degrade DNA. The extracts were clarified by centrifugation at 16,000×g for 20 min. Protein concentrations in the supernatant were determined, and subjected to western blot analysis using commercially available antibodies against the following enzymes: FAS (BD Biosciences), citrate lyase SCD1, FADS1, ACC and phospho-ACC antibodies. The proteins were visualized using Amersham ECL Plus™ Western Blotting Detection Reagents. The intensity of the specific bands of proteins of interest were scanned and normalized against beta-actin for quantifications. FAS and ACC activities from the liver extracts were determined as described earlier (Mao et al., 2006).\nTotal RNA was prepared from mouse tissues using TRIzol reagent (Invitrogen). Equal amounts of RNA from 5 mice were pooled and treated with DNase I (Turbo DNA-free, Ambion, Inc.). First stranded cDNA was synthesized from 2 μg of DNase I-treated total RNA with random hexamer primer using Superscript II RNase H-reverse transcriptase (Invitrogen). […]", "key": {"[1]": {"conditions": "western blot, normalized to actin"}}, "note": "“Also recorded” adds a separate entry of the source.", "data": [{"smiles": "CCCc1cc(-c2nc(-c3ccc(C)cc3)cs2)ccn1", "note": "[Compound 1, 2-propyl-4-(4-p-tolylthiazol-2-yl)pyridine]", "values": [{"measurement": "toxicity during the treatment", "setting": "30 mg/kg ip daily, four weeks", "value": "no obvious toxicity"}, {"measurement": "body weight gain at the end of first week", "setting": "30 mg/kg/day ip, control 4.82", "value": "about 3.37 g/mouse"}, {"measurement": "body weight at the end of first week", "setting": "30 mg/kg/day ip, from 23.08±1.53", "value": "26.45±1.2", "unit": "g/mouse"}, {"measurement": "decrease in serum HDL", "setting": "28 days", "value": "about 22%"}, {"measurement": "decrease in serum LDL", "setting": "28 days", "value": "about 35%"}, {"measurement": "increase of VLDL", "setting": "28 days", "value": "about 50%"}, {"measurement": "serum non esterified free fatty acids (NEFA) higher than controls", "setting": "28 days", "value": "about 70%"}, {"measurement": "serum triglycerides (TG) increase compared to controls", "setting": "28 days", "value": "about 30%"}, {"measurement": "ketone bodies (hydroxy butyrate) increase compared to controls", "setting": "28 days, blood, listed as fatostatin A", "value": "increased about seven fold; also recorded: seven fold increase"}, {"measurement": "serum glucose", "setting": "28 days, fasted mice, control 429.4±87", "value": "153.2 ± 30.5", "unit": "mg/dL"}, {"measurement": "serum glucose lower than controls", "setting": "28 days, fasted mice, listed as fatostatin", "value": "~70", "unit": "%"}, {"measurement": "serum glucose lower than controls", "setting": "28 days, fasted mice, listed as fatostatin A", "value": "about 70%"}, {"measurement": "ketone bodies (hydroxy butyrate)", "setting": "28 days, control 0.5±0.37", "value": "3.62 ± 1.41", "unit": "mg/dL"}, {"measurement": "serum NEFA", "setting": "28 days, control 0.7±0.2", "value": "1.93±0.26", "unit": "mEq/l"}, {"measurement": "serum LDL", "setting": "28 days, control 48±8", "value": "31±3"}, {"measurement": "serum triglycerides (TG)", "setting": "28 days, control 79±12", "value": "115±11"}, {"measurement": "serum HDL", "setting": "28 days, control 183±12", "value": "144±11"}, {"measurement": "serum total cholesterol", "setting": "28 days, control 219±18", "value": "183 ± 16", "unit": "mg/dL"}, {"measurement": "body weight less than controls", "setting": "after 28 days of treatment", "value": "about 12%"}, {"measurement": "body weight", "setting": "after 28 days of treatment, control 36.2±2.2", "value": "32.1±1.4", "unit": "g/mouse"}, {"measurement": "food intake", "setting": "average over 28 days, control 5.9±1.4", "value": "5.4±1.5", "unit": "g/mouse·day"}, {"measurement": "VLDL", "setting": "calculated based on TG levels, control 15.8±2.4", "value": "23.1 ± 2.3", "unit": "mg/dL"}, {"measurement": "average daily food intake", "setting": "control 5.9+1.4", "value": "5.4+1.5 g/mouse/d"}, {"measurement": "average weight of epididymal fat pads less than controls", "setting": "four weeks", "value": "about 20%"}, {"measurement": "decrease of ACC activity in liver extracts", "setting": "four weeks", "value": "about 40%"}, {"measurement": "reduction of FAS activity in liver extracts", "setting": "four weeks", "value": "more than 70%"}, {"measurement": "reduction of TG levels in livers", "setting": "four weeks", "value": "about 65%"}, {"measurement": "reduction of cholesterol levels in liver", "setting": "four weeks", "value": "more than 20%"}, {"measurement": "average weight of livers", "setting": "four weeks, control 2.34±0.15", "value": "1.59±0.2"}, {"measurement": "cholesterol levels in liver", "setting": "four weeks, control 3.6±0.1", "value": "2.8±0.5"}, {"measurement": "average weight of epididymal fat pads", "setting": "four weeks, control 3.6±0.2", "value": "2.7±0.1"}, {"measurement": "ACC activity in liver extracts", "setting": "four weeks, control 5.55±0.57", "value": "3.44±0.44", "unit": "n mol/min·mg"}, {"measurement": "FAS activity in liver extracts", "setting": "four weeks, control 22.6±1.37", "value": "8.64±1.91", "unit": "n mol/min·mg"}, {"measurement": "TG levels in livers", "setting": "four weeks, control 38.7±6.0", "value": "14.8±3.7", "unit": "mg/gram liver"}, {"measurement": "average weight of livers less than controls", "setting": "four weeks, listed as fatostatin", "value": "~32", "unit": "%"}, {"measurement": "average weight of livers less than controls", "setting": "four weeks, listed as fatostatin A", "value": "about 32%"}, {"measurement": "reduction of PPAR γ mRNA level in liver", "setting": "real time PCR", "value": "about 40%"}, {"measurement": "reduction in the mRNA levels of ACC1, FAS and SCD1 in liver", "setting": "real time PCR, normalized to actin", "value": "about 80%"}, {"measurement": "protein level of FADS 1 or Δ5 Desaturase in liver", "setting": "western blot", "value": "did not change"}, {"measurement": "reduction of ACL protein level in liver extracts", "setting": "[1]", "value": "about 70%"}, {"measurement": "reduction of SCD1 protein level in liver extracts", "setting": "[1]", "value": "about 50%"}]}]}
